Experimental data: patent publication US6531598B1, “Naphthostyrils” (Hoffmann-La Roche Inc., priority 2001, dated 2003)
Where a name gives a salt, the structure may show the parent alone.

Key:
human Cyclin E/CDK2 = molecular target: T1, human Cyclin E/CDK2 (Homo sapiens, UniProt P24941); assay: CDK2 FlashPlate Assay; assay type: biochemical; details: inhibition of Rb phosphorylation, 33P-ATP, 25 minutes at room temperature
T1 construct: made in house; host or cells: insect cells
Description: To determine inhibition of CDK2 activity, purified recombinant retinoblastoma (Rb) protein was coated on 96 well FlashPlates (New England Nuclear, Boston, Mass.). […] Recombinant active human Cyclin E/CDK2 complexes were partially purified from extracts of insect cells. […] Plates were incubated for 25 minutes at room temperature with shaking, then washed and counted in the Topcount scintillation counter (Packard Instrument Co., Downers Grove, Ill.). Dilutions of test compounds were tested in duplicate in each assay. The percent inhibition of Rb phosphorylation, which is a measure of the inhibition of CDK2 activity, was determined according to the following formula: [formula]
where “test compound” refers to the average counts per minute of the test duplicates, “nonspecific” refers to the average counts per minute when no Cyclin E/CDK2 was added, and “total” refers to the average counts per minute when no compound was added.

[1] = test system: MDA-MB435 breast carcinoma cell line; assay: Tetrazolium dye proliferation assay, MDA-MB435; assay type: cell-based; details: Homo sapiens, MDA-MB-435, 120 h; MTT, 5 days post addition of test compound, 2000 cells per well
Description: (§1) The cell lines used were MDA-MB435, a breast carcinoma dell line and RKO, a colon carcinoma cell line.
(§2) Teh estrogen receptor negative epithelial breast carcinoma line (MDA-MB435) was purchased from American Type Cell Culture Collection (ATCC; Rockville, Md.) and was grown in the medium recommended by ATCC. For analysis of the test compounds on growth of these cells, the cells were plated at 2000 cells per well in a 96-well tissue culture plate, and were incubated overnight at 37° C. with 5% CO2. The next day, the test compounds were dissolved in 100% dimethyl sulfoxide (DMSO) to yield a 10 mM stock solution. […] The compounds were then serially diluted in medium with 1.2% DMSO. One-fourth final volume of the diluted compounds was transferred to 96 well plates. Test compounds were assayed in duplicate. DMSO was added to a row of “control cells” such that the final concentration of DMSO in each well was 0.3%. Wells to which no cells were added served as the “blank.” Wells to which no inhibitor was added served as “no inhibitor control”. The plates were returned to the incubator, and 5 days post addition of test compound, were analyzed as described below.
(§3) 3-(4,5-Dimethylthiazole-2-yl)-2,5-diphenyl-2H-tetrazolium bromide (thiazolyl blue; MTT) was added to each well to yield a final concentration of 1 mglmL. The plates were then incubated at 37° C. for 3 hours. The plates were centrifuged at 1000 rpm for 5 minutes prior to aspiration of the MTT-containing medium. The MTT-containing medium was then removed and 100 μL 100% EtOH was added to each well to dissolve the resulting formazan metabolite. To ensure complete dissolution, plates were shaken for 15 minutes at room temperature. Absorbencies were read in a microliter plate reader (Molecular Dynamics) at a wavelength of 570 nm with a 650 nm reference. Percent inhibition was calculated by subtracting the absorbency of the blank (no cell) wells from all wells, then subtracting the division of the average absorbency of each test duplicate by the average of the controls from 1.00. Inhibitory concentrations (IC50) were determined from the linear regression of a plot of the logarithm of the concentration versus the percent inhibition.

[2] = test system: RKO colon carcinoma cell line; assay: Tetrazolium dye proliferation assay, RKO; assay type: cell-based; details: Colon carcinoma cell, 120 h; MTT, 5 days post addition of test compound, 500 cell per well
Description: as §1, §2, §3
The colon carcinoma line RKO was also obtained from the ATCC and was tested according to the same protocol provided above except that the cell line RKO was plated at 500 cell per well.

Measured: IC50

Cc1c[nH]c(-c2cc(SCCN)c3c(F)ccc4c3c2C(=O)N4)c1C [Example 50, 5-(2-Amino-ethylsulfanyl)-6-fluoro-3-(3,4-dimethyl-1H-pyrrol-2-yl)-1H-benzo[cd]indol-2-one trifluoroacetic acid salt]
≤ 10 µM: all assays above
